Experimental findings from patent publication US10287305B2, “Substituted piperidine compound and use thereof” (Takeda Pharmaceutical Company Limited, priority 2016, dated 2019) are described below.

The target of the assay is human orexin type 2 receptor (hOX2R) (Homo sapiens (Human), UniProt O43614). Briefly: Measurement of orexin type 2 receptor agonist activity (Experimental Example 2-1, FLIPR TETRA, intracellular Ca2+). It counts as cell-based. Conditions: CHO dhfr- cells expressing hOX2R; for Emax: read-out: Emax (%); for Emax at 30 µM: value at 30 uM concentration, orexin B as full agonist = 100%.
Sequence of human orexin type 2 receptor (hOX2R) (O43614 whole entry): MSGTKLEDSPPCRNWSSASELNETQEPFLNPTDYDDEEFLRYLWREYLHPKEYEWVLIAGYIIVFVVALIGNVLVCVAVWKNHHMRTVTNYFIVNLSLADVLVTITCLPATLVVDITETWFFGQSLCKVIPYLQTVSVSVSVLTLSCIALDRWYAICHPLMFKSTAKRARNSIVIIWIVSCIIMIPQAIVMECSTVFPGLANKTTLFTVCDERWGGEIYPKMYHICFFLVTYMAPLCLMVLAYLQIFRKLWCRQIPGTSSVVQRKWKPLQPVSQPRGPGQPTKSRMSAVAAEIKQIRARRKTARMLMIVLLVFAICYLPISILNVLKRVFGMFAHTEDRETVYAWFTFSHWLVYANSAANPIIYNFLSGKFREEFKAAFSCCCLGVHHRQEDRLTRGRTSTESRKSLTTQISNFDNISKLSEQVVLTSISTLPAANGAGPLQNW

[1] abbreviates: agonist activity, 10 nM human orexin B = 100%.

In general, EC50 refers to the concentration at which the effect is half-maximal. Higher therefore signals lower potency in that assay. What is called Emax is the greatest response seen or fitted, relative to the assay's reference. Regarding `CS(=O)(=O)N[C@H]1CCCN[C@H]1COC1CCC(F)(c2cc(F)cc(F)c2)CC1` (relative stereo) [Example 325, N-(cis-2-(((4-(3,5-difluorophenyl)-4-fluorocyclohexyl)oxy)methyl)-piperidin-3-yl)methanesulfonamide], under “FLIPR TETRA, Fluo-4AM”, the EC50 worked out at 5000 nM and the Emax was 75%.
On the same counts, the results for `CS(=O)(=O)N[C@H]1CCCN(C(=O)C2CC2)[C@H]1COC1CCC(F)(c2cc(F)cc(F)c2)CC1` (relative stereo) [Example 327, N-(cis-1-(cyclopropylcarbonyl)-2-(((4-(3,5-difluorophenyl)-4-fluorocyclohexyl)oxy)methyl)-piperidin-3-yl)methanesulfonamide] are 2600 nM and 86%.
On the same counts, the results for `CS(=O)(=O)N[C@H]1CCCN(C(=O)C2CC2)[C@H]1CO[C@H]1CC[C@@H](c2ncccn2)CC1` (relative stereo) [Example 328, N-(cis-1-(cyclopropylcarbonyl)-2-(((cis-4-(pyrimidin-2-yl)cyclohexyl)oxy)methyl)piperidin-3-yl)methanesulfonamide] are 7100 nM and 72%.
On the same counts, the results for `CS(=O)(=O)N[C@H]1CCCN[C@H]1CO[C@H]1CC[C@@H](c2ccccc2Cl)CC1` (relative stereo) [Example 332, N-(cis-2-(((cis-4-(2-chlorophenyl)cyclohexyl)oxy)-methyl)piperidin-3-yl)methanesulfonamide] are 610 nM and 93%.
On to `CC(=O)N1CCC[C@H](NS(C)(=O)=O)[C@@H]1CO[C@H]1CC[C@@H](c2ccccc2Cl)CC1` (relative stereo) [Example 334, N-(cis-1-acetyl-2-(((cis-4-(2-chlorophenyl)cyclohexyl)oxy)-methyl)piperidin-3-yl)methanesulfonamide], for which, where the note is “FLIPR TETRA, Fluo-4AM”, it took 27 nM to reach a half-maximal effect (EC50) and the Emax was determined as 93%.
With `COC(=O)N1CCC[C@H](NS(C)(=O)=O)[C@@H]1CO[C@H]1CC[C@@H](c2ccccc2Cl)CC1` (relative stereo) [Example 335, methyl cis-2-(((cis-4-(2-chlorophenyl)cyclohexyl)oxy)-methyl)-3-((methylsulfonyl)amino)piperidine-1-carboxylate], under “FLIPR TETRA, Fluo-4AM”, the EC50 is 6.1 nM and the Emax is 101%.
On the same counts, the results for `CC(=O)N1CCC[C@H](NS(C)(=O)=O)[C@@H]1COC1CCC(c2ccccc2)C1` (relative stereo) [Example 337, N-(cis-1-acetyl-2-(((3-phenylcyclopentyl)oxy)methyl)-piperidin-3-yl)methanesulfonamide] are 2400 nM and 88%.
On the same counts, the results for `COC(=O)N1CCC[C@H](NS(C)(=O)=O)[C@@H]1COC1CCC(c2ccccc2)C1` (relative stereo) [Example 338, methyl cis-3-((methylsulfonyl)amino)-2-(((3-phenylcyclopentyl)oxy)methyl)-piperidine-1-carboxylate] are 490 nM and 83%.
The matching figures for `CCNC(=O)N1CCC[C@H](NS(C)(=O)=O)[C@@H]1COC1CCC(c2ccccc2)C1` (relative stereo) [Example 339, cis-N-ethyl-3-((methylsulfonyl)amino)-2-(((3-phenylcyclopentyl)oxy)methyl)-piperidine-1-carboxamide]: 11 nM and 101%.
On to `CC(C)OC(=O)N1CCC[C@H](NS(C)(=O)=O)[C@@H]1CO[C@@H]1CCN(c2ncccn2)C[C@H]1F` (relative stereo) [Example 341, isopropyl cis-2-(((trans-3-fluoro-1-(pyrimidin-2-yl)piperidin-4-yl)oxy)methyl)-3-((methylsulfonyl)amino)piperidine-1-carboxylate], for which, under “FLIPR TETRA, Fluo-4AM”, the EC50 came out at 13 nM and the Emax amounted to 103%.
The matching figures for `CC(C)OC(=O)N1CCC[C@H](NS(C)(=O)=O)[C@@H]1CO[C@H]1CCN(c2ncccn2)C[C@H]1F` (relative stereo) [Example 342, isopropyl cis-2-(((cis-3-fluoro-1-(pyrimidin-2-yl)piperidin-4-yl)oxy)methyl)-3-((methylsulfonyl)amino)piperidine-1-carboxylate]: 30 nM and 104%.
On the same counts, the results for `CC(C)OC(=O)N1CCC[C@H](NS(C)(=O)=O)[C@@H]1CO[C@@H]1CCN(c2ncccn2)[C@H](C)C1` (stereo in doubt) [Example 329, isopropyl cis-2-(((cis-2-methyl-1-(pyrimidin-2-yl)piperidin-4-yl)oxy)methyl)-3-((methylsulfonyl)amino)piperidine-1-carboxylate] are 22 nM and 93%.
As to `CC(=O)N1CCC[C@H](NS(C)(=O)=O)[C@@H]1CO[C@H]1CC[C@@H](c2ccccc2)CC1` [Example 4, N-((2R,3S)-1-acetyl-2-(((cis-4-phenylcyclohexyl)oxy)methyl)piperidin-3-yl)methanesulfonamide], the Emax at 30 µM was determined as 106%. Also, under setting [1], the midpoint of the response, the EC50, lay at 44 nM.
The matching figures for `CS(=O)(=O)N[C@H]1CCCN[C@H]1CO[C@H]1CC[C@@H](c2cc(F)cc(F)c2)CC1` [Example 7, N-((2R,3S)-2-(((cis-4-(3,5-difluorophenyl)cyclohexyl)oxy)methyl)piperidin-3-yl)methanesulfonamide]: 100% and 250 nM.
On the same counts, the results for `CC(=O)N1CCC[C@H](NS(C)(=O)=O)[C@@H]1CO[C@H]1CC[C@@H](c2cc(F)cc(F)c2)CC1` [Example 8, N-((2R,3S)-1-acetyl-2-(((cis-4-(3,5-difluorophenyl)cyclohexyl)oxy)methyl)piperidin-3-yl)methanesulfonamide] are 96% and 5.6 nM.
The matching figures for `CS(=O)(=O)N[C@H]1CCCN[C@H]1CO[C@H]1CC[C@@H](c2cc(F)ccc2F)CC1` [Example 10, N-((2R,3S)-2-(((cis-4-(2,5-difluorophenyl)cyclohexyl)oxy)methyl)piperidin-3-yl)methanesulfonamide]: 113% and 220 nM.
Regarding `COC(=O)N1CCC[C@H](NS(C)(=O)=O)[C@@H]1CO[C@H]1CC[C@@H](c2cc(F)ccc2F)CC1` [Example 11, methyl (2R,3S)-2-(((cis-4-(2,5-difluorophenyl)cyclohexyl)oxy)methyl)-3-((methylsulfonyl)amino)piperidine-1-carboxylate], the Emax at 30 µM stood at 114%. The compound also had an EC50 under setting [1] of 2 nM.
On the same counts, the results for `CS(=O)(=O)N[C@H]1CCCN[C@H]1CO[C@H]1CC[C@@H](c2c(F)cccc2F)CC1` [Example 13, N-((2R,3S)-2-(((cis-4-(2,6-difluorophenyl)cyclohexyl)oxy)methyl)piperidin-3-yl)methanesulfonamide] are 115% and 130 nM.
On to `CC(=O)N1CCC[C@H](NS(C)(=O)=O)[C@@H]1CO[C@H]1CC[C@@H](c2c(F)cccc2F)CC1` [Example 14, N-((2R,3S)-1-acetyl-2-(((cis-4-(2,6-difluorophenyl)cyclohexyl)oxy)methyl)piperidin-3-yl)methanesulfonamide], for which the Emax at 30 µM was 105%. The compound also registered an EC50 under setting [1] of 6.6 nM.
Regarding `CS(=O)(=O)N[C@H]1CCCN(C(=O)C2CC2)[C@H]1CO[C@H]1CC[C@@H](c2cccc(F)c2)CC1` [Example 16, N-((2R,3S)-1-(cyclopropylcarbonyl)-2-(((cis-4-(3-fluorophenyl)cyclohexyl)oxy)methyl)piperidin-3-yl)methanesulfonamide], the Emax at 30 µM worked out at 99%. Besides, a half-maximal response under setting [1] (EC50) required 0.84 nM.
`CS(=O)(=O)N[C@H]1CCCN[C@H]1CO[C@H]1CC[C@@H](c2cccc(F)c2F)CC1` [Example 18, N-((2R,3S)-2-(((cis-4-(2,3-difluorophenyl)cyclohexyl)oxy)methyl)piperidin-3-yl)methanesulfonamide] had an Emax at 30 µM of 96%. The EC50 under setting [1] is 520 nM.
The compound `CC(=O)N1CCC[C@H](NS(C)(=O)=O)[C@@H]1CO[C@H]1CC[C@@H](c2cccc(F)c2F)CC1` [Example 19, N-((2R,3S)-1-acetyl-2-(((cis-4-(2,3-difluorophenyl)cyclohexyl)oxy)methyl)piperidin-3-yl)methanesulfonamide] registered an Emax at 30 µM of 102%. Also, the EC50 under setting [1] came to 12 nM.
On to `COC(=O)N1CCC[C@H](NS(C)(=O)=O)[C@@H]1CO[C@H]1CC[C@@H](c2cccc(F)c2F)CC1` [Example 20, methyl (2R,3S)-2-(((cis-4-(2,3-difluorophenyl)cyclohexyl)oxy)methyl)-3-((methylsulfonyl)amino)piperidine-1-carboxylate], for which the Emax at 30 µM worked out at 100%.
Consider `CS(=O)(=O)N[C@H]1CCCN[C@H]1CO[C@H]1CC[C@@H](c2c(F)ccc(F)c2F)CC1` [Example 21, N-((2R,3S)-2-(((cis-4-(2,3,6-trifluorophenyl)cyclohexyl)oxy)methyl)piperidin-3-yl)methanesulfonamide], for which the Emax at 30 µM came out at 108%. The compound further showed an EC50 under setting [1] of 200 nM.
On the same counts, the results for `CC(=O)N1CCC[C@H](NS(C)(=O)=O)[C@@H]1CO[C@H]1CC[C@@H](c2c(F)ccc(F)c2F)CC1` [Example 22, N-((2R,3S)-1-acetyl-2-(((cis-4-(2,3,6-trifluorophenyl)cyclohexyl)oxy)methyl)piperidin-3-yl)methanesulfonamide] are 98% and 5.3 nM.
In turn, `CS(=O)(=O)N[C@H]1CCCN[C@H]1CO[C@H]1CC[C@@H](c2ccccc2C(F)(F)F)CC1` [Example 23, N-((2R,3S)-2-(((cis-4-(2-(trifluoromethyl)phenyl)cyclohexyl)oxy)methyl)piperidin-3-yl)methanesulfonamide] gave an Emax at 30 µM of 90%. In addition, the EC50 under setting [1] stood at 1200 nM.
The matching figures for `CC(=O)N1CCC[C@H](NS(C)(=O)=O)[C@@H]1CO[C@H]1CC[C@@H](c2ccccc2C(F)(F)F)CC1` [Example 24, N-((2R,3S)-1-acetyl-2-(((cis-4-(2-(trifluoromethyl)phenyl)cyclohexyl)oxy)methyl)piperidin-3-yl)methanesulfonamide]: 102% and 21 nM.
